Consider 17 compounds from PubChem BioAssay (NCI).

Among the test systems are OVCAR-3 ovarian; HS 578T breast; SK-MEL-28 melanoma; HCT-15 colon; SN12C renal; HCC-2998 colon; SF-268 CNS; MOLT-4 leukemia; KM12 colon; T-47D breast.
Assay in all cases: inhibition of tumour cell growth, NCI panel, 48 h

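Following 48 hours of exposure in 96-well plates, responses at five concentrations were used to interpolate endpoints linearly. TGI: concentration producing complete growth inhibition.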 Some results are limits rather than exact numbers.

For `COC(=O)c1ccccc1CC(Cc1ccccc1)C(=O)OC` (stereo not given), the TGI in the assay on OVCAR-3 ovarian, in the assay on HS 578T breast, in the assay with SK-MEL-28 melanoma, with HCT-15 colon, in the assay on SN12C renal and in the assay on HCC-2998 colon was over 100 µM in each case. Moreover, the TGI was 61.3 µM with SF-268 CNS, 90.7 µM with MOLT-4 leukemia and over 100 µM with KM12 colon.

Consider `CCOC12SC(=Nc3ccc(C)cc3)NN1C(=S)N(C)N=C2C` (stereo not given), for which the TGI in the assay on SK-MEL-28 melanoma, in the assay on HCT-15 colon, in the assay on SN12C renal, in the assay on SF-268 CNS, in the assay on MOLT-4 leukemia and in the assay with KM12 colon was over 100 µM throughout.

Regarding `Cc1nnc2sc(N/N=C/c3ccccc3)nn12`, the TGI in the assay on OVCAR-3 ovarian, with HS 578T breast, with SK-MEL-28 melanoma, in the assay on T-47D breast, with HCT-15 colon and with SN12C renal was over 100 µM each time. Moreover, the TGI in the assay on SF-268 CNS, in the assay with MOLT-4 leukemia and in the assay with KM12 colon was over 100 µM throughout.

As to `O=C1/C(=C/c2ccco2)NC(=S)N1CN1CCOCC1`, the TGI in the assay with OVCAR-3 ovarian, in the assay with HS 578T breast, in the assay with SK-MEL-28 melanoma, in the assay on HCT-15 colon, in the assay with SN12C renal and in the assay on SF-268 CNS was over 100 µM throughout. Moreover, the TGI in the assay with MOLT-4 leukemia and in the assay with KM12 colon was over 100 µM in each case.

Consider `O=C(O)C1SCCS1`, for which the TGI in the assay on OVCAR-3 ovarian, with SK-MEL-28 melanoma, with T-47D breast, in the assay with HCT-15 colon, in the assay on SN12C renal and with HCC-2998 colon was over 100 µM each time. Also, the TGI with SF-268 CNS and with MOLT-4 leukemia was over 100 µM each time.

Turning to `Clc1ncnc2c1ncn2CCCCCCCCCCCCn1cnc2c(Cl)ncnc21`, the TGI is 23.3 µM in the assay on OVCAR-3 ovarian; 6.82 µM with SK-MEL-28 melanoma; 25.8 µM in the assay on HCT-15 colon; 37.5 µM in the assay on SN12C renal; 19.5 µM with HCC-2998 colon; 27.7 µM in the assay with SF-268 CNS. Moreover, the figures for the TGI with MOLT-4 leukemia and in the assay on KM12 colon were 42.9 µM and 28.9 µM, respectively.

As to `CCOC(=O)C(C)c1nc2cc(N3CCN(C)CC3)c(F)cc2[nH]c1=O` (stereo not given), the TGI in the assay on OVCAR-3 ovarian, in the assay with HS 578T breast, in the assay on SK-MEL-28 melanoma, in the assay on T-47D breast, in the assay with HCT-15 colon and in the assay on SN12C renal was over 100 µM each time. The TGI with SF-268 CNS, in the assay with MOLT-4 leukemia and in the assay with KM12 colon was over 100 µM each time.

As to `CC(=O)NC1=C(NCc2ccc(Cl)cc2)C(=O)c2ccccc2C1=O`, the TGI was 13.1 µM with OVCAR-3 ovarian; 11.5 µM in the assay with SK-MEL-28 melanoma; 11.6 µM in the assay on HCT-15 colon; over 50 µM in the assay on SN12C renal; over 50 µM with HCC-2998 colon; over 50 µM in the assay on SF-268 CNS. In addition, the TGI with MOLT-4 leukemia and in the assay on KM12 colon was over 50 µM each time.

For the compound `OCC(O)C(O)C(O)C(/C=N\Nc1ncnc2ccc(Br)cc12)=N/Nc1ncnc2ccc(Br)cc12` (stereo not given), the TGI with OVCAR-3 ovarian, in the assay with HS 578T breast, with SK-MEL-28 melanoma, in the assay with T-47D breast, in the assay on SN12C renal and with SF-268 CNS was over 100 µM each time. Further, the TGI with MOLT-4 leukemia and in the assay on KM12 colon was over 100 µM throughout.

Turning to `COc1ccc2c(c1)-c1nn(CCN(C)C)c3ccc(C(=O)NCCCN(C)CCCNC(=O)c4ccc5c6c(nn5CCN(C)C)-c5cc(OC)ccc5Nc46)c(c13)N2`, the TGI in the assay with OVCAR-3 ovarian was found to be 3.23 µM; in the assay on SK-MEL-28 melanoma it was 0.48 µM; with HCT-15 colon, 10.9 µM; with SN12C renal, 0.983 µM; in the assay with HCC-2998 colon it was 0.306 µM; in the assay on SF-268 CNS, 2.46 µM. This compound returned a TGI in the assay with MOLT-4 leukemia of 0.0653 µM.

Turning to `CC(=O)Nc1ccc(-c2nnc(SCC(=O)Nc3ccccc3C)o2)cc1`, the TGI with OVCAR-3 ovarian, with SK-MEL-28 melanoma, in the assay with HCT-15 colon, with SN12C renal, with SF-268 CNS and with MOLT-4 leukemia was over 100 µM in each case. Besides, in the assay on KM12 colon, the TGI was over 100 µM.

For `COc1nc2[nH]ccc2c(=O)n1C`, the TGI with SK-MEL-28 melanoma, with HCT-15 colon, in the assay with SN12C renal, with SF-268 CNS, with MOLT-4 leukemia and with KM12 colon was over 100 µM throughout.

In the case of `CCS(=O)(=O)c1c2cc(OC)ccc2nc2ccc(OC)cc12`, the TGI with OVCAR-3 ovarian, with SK-MEL-28 melanoma, in the assay on T-47D breast, in the assay on HCT-15 colon, in the assay on SN12C renal and with HCC-2998 colon was over 100 µM each time. For the same compound, the TGI in the assay with SF-268 CNS, in the assay on MOLT-4 leukemia and with KM12 colon was over 100 µM throughout.

As for `CN1CCCCC(C(O)(c2ccccc2)c2ccccc2)C1=O` (stereo not given), the TGI was over 100 µM in the assay on OVCAR-3 ovarian; over 100 µM in the assay with SK-MEL-28 melanoma; 32.1 µM in the assay with HCT-15 colon; over 100 µM with SN12C renal; over 100 µM in the assay on HCC-2998 colon; over 100 µM with SF-268 CNS. For the same compound, the TGI in the assay with MOLT-4 leukemia and with KM12 colon was over 100 µM throughout.

Regarding `COc1ccc(C2c3cc4c(cc3OC(N3CCCCC3)C2C)OCO4)cc1` (stereo not given), the TGI in the assay with OVCAR-3 ovarian is over 100 µM; in the assay on HS 578T breast it was 87.8 µM; in the assay on SK-MEL-28 melanoma, over 100 µM; with T-47D breast it was over 100 µM; with HCT-15 colon, over 100 µM; in the assay with SN12C renal it was over 100 µM. The TGI in the assay with SF-268 CNS, with MOLT-4 leukemia and in the assay with KM12 colon was over 100 µM throughout.

As for `CC(=O)NC1=C(C)C(=O)c2c(nc3n2CC[C@H]3OC(C)=O)C1=O`, the TGI in the assay with OVCAR-3 ovarian came out at 1.4 µM; in the assay on HS 578T breast, 9.21 µM; in the assay with SK-MEL-28 melanoma it was 5.16 µM; in the assay on T-47D breast it was 1.37 µM; in the assay on HCT-15 colon, 12.6 µM; in the assay with SN12C renal it was 3.17 µM. Further, the TGI in the assay with HCC-2998 colon is 7.73 µM; in the assay on SF-268 CNS it was 10.7 µM; in the assay on KM12 colon, 3.52 µM.

Take `CC(=O)OCC1OC(c2nnc(C)o2)=CC(OC(C)=O)C1OC(C)=O` (stereo not given): the TGI with OVCAR-3 ovarian, with HS 578T breast, in the assay with SK-MEL-28 melanoma, in the assay on SN12C renal, with SF-268 CNS and in the assay on MOLT-4 leukemia was over 100 µM in each case. Further, in the assay on KM12 colon, the TGI was over 100 µM.
